Measurements from patent publication US8222187B2, “Method for improving the phytoremediation of polluted sites by providing plants with exogenous carbohydrates” (Universite de Rennes 1, priority 2003, dated 2012).

Assays:
[1] = tested on: superoxide ion; test: Superoxide ion production of the plants; format: in vivo, Arabidopsis thaliana; details: 10 mM sucrose
Procedure: In addition, the superoxide ion production of the plants was tested according to the method of Fryer et al. (2002 Imaging of photo-oxidative stress responses in leaves—J. Exp. Bot. 53: 1249-1254).

[2] = tested on: Arabidopsis thaliana; test: Photosynthetic pigment levels (chlorophylls and carotenoids) after 15 days of culture; format: in vivo
Procedure: (§1) Arabidopsis thaliana seeds (Wassilewskija ecotype) were sterilised at the surface according to the standard protocol and then rinsed with absolute ethanol and dried for one night.
(§2) These seeds were cultivated in Petri dishes on a culture medium of Murashige and Skoog (adjusted to a pH of 5.7) containing agar (0.8%). The Petri dishes were stored for 48 h at 4° C. then transferred to 22° C. under a photoperiod of 16 hours per day at 4500 lux. The sucrose and glucose were added to the culture medium, while no sugar was added for the controls.
(§3) A growth parameter (length of the primary roots) and the pigment levels (chlorophylls and carotenoids) were measured after 15 days of culture. The atrazine levels in the plants were also measured after one month of culture.
The photosynthetic pigments (chlorophylls and carotenoids) were extracted by grinding the aerial portions of the plants in 80% acetone and by measuring the absorbance of the extracts corresponding to 663 nm, 646 nm and 470 nm. The levels of these pigments were expressed in μg/mL and determined according to the method of Lichtenthaler et al. (1983 Biochem. Soc. Trans. 11, 591-592).

[3] = tested on: D1 protein of photosystem II; test: D1 protein levels by Dot Blot and Western Blot; format: in vivo, Arabidopsis thaliana
Procedure: In another experiment series, Arabidopsis thaliana plants were cultivated in the culture medium described above in the absence of sucrose and in the presence of 10 mM and 80 mM of sucrose, and in the absence of atrazine and in the presence of 0.25 μM and 1 μM of atrazine. To measure the levels of D1 protein (31-kD monomer and 21.5-kD by-products), the membrane proteins of the plants were isolated according to the method of Pilgrim et al. (1998 Plant. J. 13 2-77-186). The levels of the total concentration of the target protein, D1 protein of photosystem II, were measured by Dot Blot analysis. Then, the different forms were analysed by gel electrophoresis separation under denaturing and Western Blot conditions.

[4] = tested on: Arabidopsis thaliana; test: Length of the primary roots of Arabidopsis thaliana after 15 days of culture on agar medium; format: in vivo
Procedure: as §1, §2, §3

[5] = tested on: Arabidopsis thaliana; test: Arabidopsis culture on humus contaminated with atrazine; format: in vivo; details: humus with 10 μM atrazine; sucrose applied to the surface as a 3% solution
Procedure: Atrazine concentrations were also measured in the plants and the culture medium using conventional methods of extraction with solvents and high-performance liquid chromatography analysis with UV detection. The atrazine was extracted in a methanol and water mixture (4:1, v/v). After centrifugation, the supernatants were filtered on filters of 0.45 μm and the organic solvents were evaporated at 40° C. SPE cartridges were activated by washing with 5 mL or methanol then 5 mL of water. Each sample was applied to a column and the columns were then washed. The atrazine was eluted with 2 mL of dichloromethane. The organic solvents were then evaporated and the dry residues were dissolved in 500 μL of a methanol and water mixture (1:1). The samples were then analysed by HPLC with UV detection. In additional experiments, Arabidopsis thaliana was also cultivated on a humus contaminated at a concentration of 10 μM of atrazine in the absence of sucrose and in the presence of sucrose applied to the surface in the form of a 3% solution. The cultures obtained are shown in FIG. 11, in which the left-hand container corresponds to the culture in the presence of sucrose and the right-hand container corresponds to the culture in the absence of sucrose.

[6] = biological target: T1, photosystem II (Arabidopsis thaliana, UniProt P83755); test: Activity of photosystem II monitored by chlorophyll fluorescence; format: in vivo; details: increasing sucrose (10 mM, 80 mM), atrazine 0.25 μM and 1 μM (lethal or sublethal doses without sucrose)
T1 construct: from tissue; host or cells: whole Arabidopsis thaliana plants grown on culture medium
Procedure: In another experiment series, Arabidopsis thaliana plants were cultivated in the culture medium described above in the absence of sucrose and in the presence of 10 mM and 80 mM of sucrose, and in the absence of atrazine and in the presence of 0.25 μM and 1 μM of atrazine. […] The activity of photosystem II is monitored by measuring the fluorescence of the chlorophylls.

[7] = absence of sugars in the culture medium

SMILES | effect on superoxide ion production ([1]; increasing atrazine levels) | concentration at which chlorophylls and carotenoids disappear completely [2, 7] | effect on levels of chlorophylls and carotenoids in the leaves ([2]; in the presence of 80 mM sucrose or 80 mM glucose) | effect on D1 protein (Dot Blot, all D1 proteins) ([3]; 1 μM atrazine, plants not cultivated in the presence of sucrose) | effect on the length of the primary roots ([4]; 1 to 10 μM atrazine, in the presence of 80 mM sucrose or 80 mM glucose) | IC50 ([4]; Arabidopsis thaliana, absence of sugars in the culture medium, hyperbolic regression curve (R^2=0.93), read-out: I50 for the atrazine inhibition of primary root length) | concentration at which inhibition of root development is complete, with discolouring and death of the plants [4, 7] | effect on root growth ([4]; atrazine concentrations higher than 10 μM, in the presence of 80 mM sucrose or 80 mM glucose) | seedlings on contaminated humus with sucrose compared with no sucrose [5] | effect of sucrose on production of active oxygen species such as the superoxide ion ([1]; in the presence of atrazine) | effect on D1 protein and by-products (Western Blot) ([3]; 10 mM sucrose, 1 μM atrazine) | effect on D1 protein and by-products (Western Blot) ([3]; 80 mM sucrose, 1 μM atrazine) | effect on monomer of the D1 protein (Western Blot) ([3]; 80 mM sucrose, atrazine concentrations at which the monomer disappears without sucrose) | effect on D1 protein (Western Blot) ([3]; high sucrose concentrations, absence of atrazine) | effect on D1 protein and by-products (Western Blot) ([3]; sucrose in the culture medium, 0.25 μM atrazine) | effect on activity of photosystem II [6] | increase in root growth at higher atrazine concentrations, sucrose compared with glucose ([4]; 80 mM sugar)
CCNc1nc(Cl)nc(NC(C)C)n1 [atrazine, 2-chloro-4-ethylamino-6-isopropylamine-1,3,5-triazine] | appears to increase in the presence of atrazine | 500 nM | the production of these pigments is not suppressed | causes the disappearance of the D1 protein | inhibiting but non-lethal effect | 120 nM | 500 nM | paradoxically enable the root growth to improve |  |  |  |  |  |  |  |  | 
OC[C@H]1O[C@@](CO)(O[C@H]2O[C@H](CO)[C@@H](O)[C@H](O)[C@H]2O)[C@@H](O)[C@@H]1O [sucrose] |  |  |  |  |  |  |  |  | more numerous and larger | does not prevent the production | The same effect was observed | causes a decrease in the D1 protein | maintain a sufficient amount of monomer of the D1 protein | decrease in D1 protein production | greater accumulation of the D1 protein and its by-products | contribute to maintaining the activity of photosystem II | greater in the presence of sucrose than in the presence of glucose
